Measurements reported in patent US7767798B2, “Loganin analogues and a process for the preparation thereof” (priority 2005, dated 2010).
Values after ≈ are worked out from the molar mass of the structure shown. Read-outs that look alike come from different tables or passages of the source.

Experiments:
[1] = system: breast (MCF-7) cancer cell line; test: MTT cytotoxicity assay, MCF-7; assay type: cell-based, human; settings: for IC50: Homo sapiens
Method: (§1) Cytotoxicity testing In-vitro was done by the method of Woerdenberg et al^17. 2×10^3 cells/well were incubated in the 5% CO2, 95% atmosphere and 37° C. in CO2 incubator for 24 h to enable them to adhere properly to the 96 well polysterene microplate (Grenier, Germany). Test compounds dissolved in 100% DMSO (Merck, Germany) in at least five doses were added and left for four hour after which the compound plus media was replaced with fresh media and the cell were incubated for another 48 h in the CO2 incubator at 37° C. […] Then, 10 μL from 5 mg/ml stock of MTT [3-(4,5-dimethylthiazol-2-yl)-2,5-diphenyltetrazolium bromide; Sigma M 2128] was added, and plate were incubated at 37° C. for 4 h. 100 μL of dimethylsulfoxide (DMSO, Merck, Germany) were added to all wells and mixed thoroughly to dissolve the dark blue crystal. After a few minute at room temperature to ensure that all crystal were dissolve, the plate were read on a Spectra Max 190 Microplate Elisa Reader (Molecular Devices Inc., U.S.A), at 570 nm. Plate were normally read within 1 h of adding the DMSO. The experiment was done in triplicate and the inhibitory concentration (IC) values were calculated as; % INHIBITION=[1−OD (570 nm) of sample well/OD (570 nm) of control well]×100. IC50 is the concentration μg/mL required for 50% inhibition of cell growth as compared to that of untreated control.

[2] = system: Ovary (PA-1) cancer cell line; test: MTT cytotoxicity assay, PA-1; assay type: cell-based, human; settings: for IC50: Homo sapiens, read-out: PA-1 IC50
Method: as §1

[3] = system: Liver (WRL) cancer cell line; test: MTT cytotoxicity assay, WRL; assay type: cell-based, human; settings: for IC50: Homo sapiens, read-out: WRL IC50
Method: as §1

[4] = system: Suspension Colon (COLO-320) cancer cell line; test: MTT cytotoxicity assay, COLO-320; assay type: cell-based, human; settings: for IC50: Homo sapiens; for times higher activity than vinblastine: COLO-320
Method: as §1

[5] = system: Adherent colon (CaCo2) cancer cell line; test: MTT cytotoxicity assay, CaCo2; assay type: cell-based, human; settings: for IC50: Homo sapiens
Method: as §1

[6] = system: human cancer cell lines (MCF-7, PA-1, WRL, COLO-320, CaCo2); test: MTT cytotoxicity assay, summary over the tested human cancer cell lines; settings: for IC50: Homo sapiens; for Dosage range IC50: range of IC50 over the tested cell lines (Table 1)
Method: as §1

[7] = tested human cancer cell lines, comparison with loganin, compound 4 or a neighbouring analogue
[8] = MTT assay, MCF-7 breast cancer cells
[9] = MTT assay, PA-1 ovary cancer cells
[10] = MTT assay, WRL liver cancer cells
[11] = MTT assay, COLO-320 suspension colon cancer cells
[12] = MTT assay, CaCo2 adherent colon cancer cells

COC(=O)C1=CO[C@@H](O[C@@H]2O[C@H](CO)[C@@H](O)[C@H](O)[C@H]2O)[C@@H]2[C@@H](C)[C@@H](O)C[C@H]12 [Compound 1, loganin]
IC50 ([1]; MCF7, read-out: MCF-7 IC50): 4.85 µg/mL (≈ 12.4 µM)
IC50 [2]: 1.45 µg/mL (≈ 3.71 µM)
IC50 [3]: 1.86 µg/mL (≈ 4.76 µM)
IC50 ([4]; COLO 320, read-out: COLO-320 IC50): 1 µg/mL (≈ 2.56 µM)
IC50 ([5]; Caco-2, read-out: CaCo2 IC50): 1.28 µg/mL (≈ 3.28 µM)
IC50 ([6]; read-out: Dosage range IC50): 1 to 5 µg/mL (≈ 2.56 to 12.8 µM)
IC50 ([6]; read-out: concentration/dose used in vitro MTT assay for IC50, range): 1 to 5 µg/mL (≈ 2.56 to 12.8 µM)
cytotoxic activity in words [6, 7]: significant cytotoxic activity

COC(=O)C1=CO[C@@H](O[C@@H]2O[C@H](COC(c3ccccc3)(c3ccccc3)c3ccccc3)[C@@H](O)[C@H](O)[C@H]2O)[C@@H]2[C@@H](C)[C@@H](O)C[C@H]12 [Compound 2, 6′-O-trityl loganin]
MCF-7 IC50 [1, 8]: 1.00 µg/mL
PA-1 IC50 [2, 9]: 0.65 µg/mL
WRL IC50 [3, 10]: 1.86 µg/mL
COLO-320 IC50 [4, 11]: 0.25 µg/mL
CaCo2 IC50 [5, 12]: 0.56 µg/mL
cytotoxic activity in words [6]: enhanced cytotoxic activity
Dosage range IC50 [6]: 0.25 to 2.0 µg/mL

COC(=O)C1=COC(O[C@@H]2O[C@H](COC(c3ccccc3)(c3ccccc3)c3ccccc3)[C@@H](OC(C)=O)[C@H](OC(C)=O)[C@H]2OC(C)=O)C2C1CC(OC(C)=O)C2C (stereo partly drawn) [Compound 3, 2′,3′,4′,7-tetra-O-acetyl-6′-O-trityl loganin]
MCF-7 IC50 [1, 8]: 1.20 µg/mL
PA-1 IC50 [2, 9]: 1.20 µg/mL
WRL IC50 [3, 10]: 2.44 µg/mL
COLO-320 IC50 [4, 11]: 0.82 µg/mL
CaCo2 IC50 [5, 12]: 3.45 µg/mL
Dosage range IC50 [6]: 0.80 to 3.5 µg/mL
cytotoxic activity in words [6, 7]: enhanced cytotoxic activity

COC(=O)C1=COC(O[C@@H]2O[C@H](CO)[C@@H](OC(C)=O)[C@H](OC(C)=O)[C@H]2OC(C)=O)C2C1CC(OC(C)=O)C2C (stereo partly drawn) [Compound 4, 2′,3′,4′,7-tetra-O-acetyl loganin]
cytotoxic activity in words [6, 7]: abolished cytotoxicity

CCC(=O)OC[C@H]1O[C@@H](OC2OC=C(C(=O)OC)C3CC(OC(C)=O)C(C)C23)[C@H](OC(C)=O)[C@@H](OC(C)=O)[C@@H]1OC(C)=O (stereo partly drawn) [Compound 5, 2′,3′,4′,7-Tetra-O-acetyl-6′-O-propionylloganin]
MCF-7 IC50 [1, 8]: 1.88 µg/mL
PA-1 IC50 [2, 9]: 1.24 µg/mL
WRL IC50 [3, 10]: 2.65 µg/mL
COLO-320 IC50 [4, 11]: 0.85 µg/mL
CaCo2 IC50 [5, 12]: 2.85 µg/mL
concentration/dose used in vitro MTT assay for IC50, range ([6]; MCF-7, PA-1, WRL, COLO-320 and CaCo-2): 0.80 to 3.0 µg/mL
Dosage range IC50 [6]: 0.80 to 3.0 µg/mL

CCCCCCCCCCCC(=O)OC[C@H]1O[C@@H](OC2OC=C(C(=O)OC)C3CC(OC(C)=O)C(C)C23)[C@H](OC(C)=O)[C@@H](OC(C)=O)[C@@H]1OC(C)=O (stereo partly drawn) [Compound 6, 2′,3′,4′,7-Tetra-O-acetyl-6′-O-lauroylloganin]
MCF-7 IC50 [1, 8]: 0.24 µg/mL
PA-1 IC50 [2, 9]: 0.15 µg/mL
WRL IC50 [3, 10]: 0.85 µg/mL
times higher activity than vinblastine [4]: 13 times
COLO-320 IC50 [4, 11]: 0.04 µg/mL
CaCo2 IC50 [5, 12]: 0.42 µg/mL
Dosage range IC50 [6]: 0.04 to 0.85 µg/mL

CCCCCCCCCCCCCC(=O)OC[C@H]1O[C@@H](OC2OC=C(C(=O)OC)C3CC(OC(C)=O)C(C)C23)[C@H](OC(C)=O)[C@@H](OC(C)=O)[C@@H]1OC(C)=O (stereo partly drawn) [Compound 7, 2′,3′,4′,7-Tetra-O-acetyl-6′-O-myristoyl loganin]
MCF-7 IC50 [1, 8]: 24.60 µg/mL
PA-1 IC50 [2, 9]: 6.5 µg/mL
WRL IC50 [3, 10]: 58.50 µg/mL
COLO-320 IC50 [4, 11]: 30.00 µg/mL
Dosage range IC50 [6]: 6.5 to 59.0 µg/mL

C=CC(=O)OC[C@H]1O[C@@H](OC2OC=C(C(=O)OC)C3CC(OC(C)=O)C(C)C23)[C@H](OC(C)=O)[C@@H](OC(C)=O)[C@@H]1OC(C)=O (stereo partly drawn) [Compound 9, 2′,3′,4′,7-Tetra-O-acetyl-6′-O-acryloyl loganin]
cytotoxic activity in words [6, 7]: totally abolished the activity

COC(=O)C1=COC(O[C@@H]2O[C@H](COC(=O)C=C(C)C)[C@@H](OC(C)=O)[C@H](OC(C)=O)[C@H]2OC(C)=O)C2C1CC(OC(C)=O)C2C (stereo partly drawn) [Compound 10, 2′,3′,4′,7-Tetra-O-acetyl-6′-O-3″,3″-dimethyl acryloylloganin]
MCF-7 IC50 [1, 8]: 1.00 µg/mL
PA-1 IC50 [2, 9]: 0.65 µg/mL
WRL IC50 [3, 10]: 1.20 µg/mL
COLO-320 IC50 [4, 11]: 0.08 µg/mL
CaCo2 IC50 [5, 12]: 0.80 µg/mL
Dosage range IC50 [6]: 0.08 to 1.20 µg/mL
cytotoxic activity in words [6, 7]: significant enhancement of anticancer activity

COC(=O)C1=COC(O[C@@H]2O[C@H](COC(=O)c3cc(OC)c(OC)c(OC)c3)[C@@H](OC(C)=O)[C@H](OC(C)=O)[C@H]2OC(C)=O)C2C1CC(OC(C)=O)C2C (stereo partly drawn) [Compound 11, 2′,3′,4′,7-Tetra-O-acetyl-6′-O-3,4,5-trimethoxy benzoyl loganin]
MCF-7 IC50 [1, 8]: 0.25 µg/mL
PA-1 IC50 [2, 9]: 0.10 µg/mL
WRL IC50 [3, 10]: 0.54 µg/mL
times higher activity than vinblastine [4]: 13 times
COLO-320 IC50 [4, 11]: 0.04 µg/mL
times higher activity than vinblastine ([5]; CaCO2): 8 times
CaCo2 IC50 [5, 12]: 0.06 µg/mL
Dosage range IC50 [6]: 0.044 to 3.54 µg/mL
cytotoxic activity in words [6, 7]: significant enhancement in the cytotoxicity

COC(=O)C1=COC(O[C@@H]2O[C@H](COC(=O)c3cccc([N+](=O)[O-])c3)[C@@H](OC(C)=O)[C@H](OC(C)=O)[C@H]2OC(C)=O)C2C1CC(OC(C)=O)C2C (stereo partly drawn) [Compound 12, 2′,3′,4′,7-Tetra-O-acetyl-6′-O-(3′″)-nitrobenzoyl loganin]
MCF-7 IC50 [1, 8]: 1.25 µg/mL
PA-1 IC50 [2, 9]: 0.85 µg/mL
WRL IC50 [3, 10]: 3.20 µg/mL
COLO-320 IC50 [4, 11]: 0.44 µg/mL
CaCo2 IC50 [5, 12]: 1.00 µg/mL
Dosage range IC50 [6]: 0.44 to 3.20 µg/mL
cytotoxic activity in words [6, 7]: slightly decreased the activity

CC[C@]1(O)C[C@@H]2CN(CCc3c([nH]c4ccccc34)[C@@](C(=O)OC)(c3cc4c(cc3OC)N(C)[C@H]3[C@@](O)(C(=O)OC)[C@H](OC(C)=O)[C@]5(CC)C=CCN6CC[C@]43[C@@H]65)C2)C1 [Vinblastine, vinblastine, reference compound]
IC50 ([1]; MCF7, MTT assay, MCF-7 breast cancer cells, read-out: MCF-7 IC50): 0.02 µg/mL (≈ 0.0247 µM)
IC50 [2, 9]: 0.025 µg/mL (≈ 0.0308 µM)
IC50 [3, 10]: 1.45 µg/mL (≈ 1.79 µM)
IC50 ([4]; MTT assay, COLO-320 suspension colon cancer cells, read-out: COLO-320 IC50): 0.52 µg/mL (≈ 0.641 µM)
IC50 ([5]; Caco-2, MTT assay, CaCo2 adherent colon cancer cells, read-out: CaCo2 IC50): 0.46 µg/mL (≈ 0.567 µM)
IC50 ([6]; read-out: Dosage range IC50): 0.02 to 1.45 µg/mL (≈ 0.0247 to 1.79 µM)
